System: Plasmodium berghei
Assay: Luciferase/luciferin-expressing antifolate-resistant parasites were used to infect a culture of HepG2 cells that were pre-incubated with compounds. Infected hepatocytes emit light due to the luciferase reaction. Assay results are presented as the percent inhibition of light emission compared to control. […]
Type: functional
Settings: sporozoite; for IC90: read-out: LUCIFERASE INFECTION ASSAY - IC90
[1] = read-out: LUCIFERASE INFECTION ASSAY - IC50

| SMILES | IC90 [µM] | IC50 [1] [µM] | further results |
| --- | --- | --- | --- |
| NC(Cc1ccc(F)cc1)c1csc(Nc2ncccn2)n1 (stereo not given) | 4.09 | – | IC50 (HEPG2TOX_HILL_SLOPE 5.82, HEPG2TOX_R_SQUARED 0.311, PBLUC_HILL_SLOPE 16.5, PBLUC_R_SQUARED 0.556, read-out: LUCIFERASE INFECTION ASSAY - IC50): 3.58 µM |
| O=C(O)c1ccc(CN2C(=O)CCC2=O)cc1 | > 10 | > 10 | – |
| Cc1ccc(C2=NNC(=NC3CC3)SC2)cc1 | > 10 | 1.46 | – |
| CC1CCc2c(sc3nc(CN4CCOCC4)nc(N4CCN(S(=O)(=O)/C=C/c5ccccc5)CC4)c23)C1 (stereo not given) | > 10 | > 10 | – |
| CSc1ccc(-c2nccc3n[nH]c(C4CC4)c23)cc1 | > 10 | – | IC50 (PBLUC_HILL_SLOPE 3.07, PBLUC_R_SQUARED 0.601, read-out: LUCIFERASE INFECTION ASSAY - IC50): 5.61 µM |
| CC(C)N(C(=O)NC(=O)Nc1nc(-c2ccccc2)cs1)S(C)(=O)=O | > 10 | – | IC50 (HEPG2TOX_HILL_SLOPE 10.9, HEPG2TOX_R_SQUARED 0.151, read-out: LUCIFERASE INFECTION ASSAY - IC50): > 10 µM |
| CCN(CC)CCn1c(NC(=O)c2cc(C(C)=O)c[nH]2)nc2ccccc21 | > 10 | 1.82 | – |
| CCOC(=O)CCCNC(=O)COC(=O)c1cc(-c2ccco2)nc2ccccc12 | > 10 | > 10 | – |
| Cc1ccc(CCC2CCN(C(C)C(=O)Nc3cccc(S(N)(=O)=O)c3)CC2)cc1 (stereo not given) | > 10 | 6.94 | – |
| Cc1noc(C)c1COc1ccccc1C(=O)N1CCN(S(=O)(=O)c2cccc(C(F)(F)F)c2)CC1 | > 10 | > 10 | – |
| CCOc1ccc(NCC(=O)c2ccc(-c3ccccc3)cc2)cc1 | > 10 | – | IC50 (PBLUC_HILL_SLOPE 16.8, 2.19, PBLUC_R_SQUARED 0.173, 0.582, read-out: LUCIFERASE INFECTION ASSAY - IC50): 8.7 µM |
| CCOc1cccc(C(=O)Nc2c(C)cc(Br)cc2C)c1 | > 9.48 | > 9.48 | – |
| O=S(=O)(/C=C/c1ccccc1)N1CCSc2ccc(Cl)cc21 | 4.27 | – | IC50 (HEPG2TOX_HILL_SLOPE 12.6, HEPG2TOX_R_SQUARED 0.499, PBLUC_HILL_SLOPE 12.6, PBLUC_R_SQUARED 0.783, read-out: LUCIFERASE INFECTION ASSAY - IC50): 3.58 µM |
| N#C/C(=C\c1ccc(O)cc1)c1nc(C(c2ccccc2)c2ccccc2)no1 | > 10 | – | IC50 (FFLUC_HILL_SLOPE 12.8, FFLUC_R_SQUARED 0.5, read-out: LUCIFERASE INFECTION ASSAY - IC50): > 10 µM |
| CCCCSc1scc(-c2ccc(Cl)c(Cl)c2)c1C#N | > 9.64 | – | IC50 (HEPG2TOX_HILL_SLOPE 94.8, HEPG2TOX_R_SQUARED 0.896, read-out: LUCIFERASE INFECTION ASSAY - IC50): > 9.64 µM |
| O=C(Nc1nnc(C(F)(F)F)[nH]1)c1cc(-c2ccc(Br)cc2)nc2ccccc12 | > 10 | – | IC50 (HEPG2TOX_HILL_SLOPE 7.84, HEPG2TOX_R_SQUARED 0.569, PBLUC_HILL_SLOPE 1.54, PBLUC_R_SQUARED 0.197, read-out: LUCIFERASE INFECTION ASSAY - IC50): 9.57 µM |
| OC(COc1ccc2cc(Br)ccc2c1)CN1CCCC1 (stereo not given) | > 9.42 | – | IC50 (FFLUC_HILL_SLOPE 1.55, FFLUC_R_SQUARED 0.115, PBLUC_HILL_SLOPE 1.17, PBLUC_R_SQUARED 0.42, read-out: LUCIFERASE INFECTION ASSAY - IC50): 4.73 µM |
| COC(=O)c1cc(NC(=O)C(C)(C)Oc2ccc(Cl)cc2)ccc1F | > 10 | – | IC50 (PBLUC_HILL_SLOPE 3.63, PBLUC_R_SQUARED 0.0477, read-out: LUCIFERASE INFECTION ASSAY - IC50): > 10 µM |
| OCC1CCCN(c2nn3cc(-c4ccccc4)nc3s2)C1 (stereo not given) | 0.00758 | – | – |
| CCCn1c(NC(=O)C2CCN(S(=O)(=O)c3cccc(Cl)c3Cl)CC2)nc2ccccc21 | 6.16 | – | IC50 (HEPG2TOX_HILL_SLOPE 3.25, HEPG2TOX_R_SQUARED 0.759, PBLUC_HILL_SLOPE 100, PBLUC_R_SQUARED 0.016, read-out: LUCIFERASE INFECTION ASSAY - IC50): 6.02 µM |
| Cc1cc(C(=O)CN2C(=O)NC(C)(C3CC3)C2=O)c(C)n1C(c1ccccc1)c1ccccc1 (stereo not given) | 6.7 | – | IC50 (FFLUC_HILL_SLOPE 14.7, FFLUC_R_SQUARED 0.253, PBLUC_HILL_SLOPE 1.67, PBLUC_R_SQUARED 0.756, read-out: LUCIFERASE INFECTION ASSAY - IC50): 1.8 µM |
| O=C(CC1(C(F)(F)F)OCCO1)Nc1ccc(C(OC(=O)c2ccc(F)cc2)(C(F)(F)F)C(F)(F)F)cc1 | > 10 | > 10 | – |
| O=C(Nc1cccc(C(F)(F)F)c1)Nc1ccc2nc(Cc3ccccc3)nn2c1 | 3.8 | – | IC50 (HEPG2TOX_HILL_SLOPE 10.6, HEPG2TOX_R_SQUARED 0.963, PBLUC_HILL_SLOPE 15.5, PBLUC_R_SQUARED 0.643, read-out: LUCIFERASE INFECTION ASSAY - IC50): 3.3 µM |
| O=C(CCCc1ccc(F)cc1)c1ccc2c(c1)OCCO2 | 0.926 | – | IC50 (FFLUC_HILL_SLOPE 3.34, FFLUC_R_SQUARED 0.538, PBLUC_HILL_SLOPE 0.746, PBLUC_R_SQUARED 0.706, read-out: LUCIFERASE INFECTION ASSAY - IC50): 0.0487 µM |

| SMILES | IC90 [µM] | IC50 [1] [µM] | further results |
| --- | --- | --- | --- |
| CN(CC(=O)N1CCN(C(c2ccc(F)cc2)c2ccc(F)cc2)CC1)C1=NS(=O)(=O)c2ccccc21 | > 10 | > 10 | – |
| N#Cc1c(N=Cc2c(O)n(-c3ccc(Br)cn3)c(=O)c3ccccc23)sc2c1CCC2 | > 10 | – | IC50 (HEPG2TOX_HILL_SLOPE 5.03, HEPG2TOX_R_SQUARED 0.905, PBLUC_HILL_SLOPE 1.74, PBLUC_R_SQUARED 0.542, read-out: LUCIFERASE INFECTION ASSAY - IC50): 6.14 µM |
| O=C(CCSc1n[nH]c(=O)n1C1CC1)Nc1ccccc1 | > 10 | > 10 | – |
| COc1ccc(-c2nc(C=C3C(=O)c4ccccc4C3=O)cs2)cc1 | > 10 | > 10 | – |
| CC(=O)c1cccc(-c2cnc3ccc(-c4cccc(OC(F)(F)F)c4)nn23)c1 | > 10 | – | IC50 (HEPG2TOX_HILL_SLOPE 7.2, HEPG2TOX_R_SQUARED 0.65, PBLUC_HILL_SLOPE 0.974, PBLUC_R_SQUARED 0.617, read-out: LUCIFERASE INFECTION ASSAY - IC50): 1.38 µM |
| Cc1ccc(-c2cnc3ccc(NC4CCOCC4)nn23)cc1 | 10.4 | 3.16 | – |
| COc1ccc(NS(=O)(=O)c2cc(NC(=O)c3ccsc3)ccc2Cl)cc1 | 0.419 | – | IC50 (HEPG2TOX_HILL_SLOPE 1.65, HEPG2TOX_R_SQUARED 0.932, PBLUC_HILL_SLOPE 10.6, PBLUC_R_SQUARED 0.586, read-out: LUCIFERASE INFECTION ASSAY - IC50): 0.34 µM |
| COc1ccc(CCC(=O)NNC(=O)c2ccc3ccccc3n2)cc1Br | 5.65 | – | IC50 (PBLUC_HILL_SLOPE 3.11, PBLUC_R_SQUARED 0.471, read-out: LUCIFERASE INFECTION ASSAY - IC50): 2.79 µM |
| CC(C)n1ncc2c1N=C(N(C)C)N(c1ccccc1)C2c1ccc(Cl)cc1 (stereo not given) | > 10 | – | IC50 (HEPG2TOX_HILL_SLOPE 1.3, HEPG2TOX_R_SQUARED 0.392, read-out: LUCIFERASE INFECTION ASSAY - IC50): > 10 µM |
| Cc1ccc(S(=O)(=O)Oc2cc(C)ccc2C)cc1 | > 11.9 | – | IC50 (PBLUC_HILL_SLOPE 0.836, PBLUC_R_SQUARED 0.347, read-out: LUCIFERASE INFECTION ASSAY - IC50): 4.27 µM |
| COc1ccc(S(=O)(=O)N(Cc2ccc(C(=O)NC3CC3)cc2)C2CC2)cc1OC | 7.7 | – | IC50 (PBLUC_HILL_SLOPE 1.44, PBLUC_R_SQUARED 0.778, read-out: LUCIFERASE INFECTION ASSAY - IC50): 1.68 µM |
| c1cncc(-c2cn3c(-c4cccs4)cnc3cn2)c1 | > 11.9 | > 11.9 | – |
| COc1ccc(NS(=O)(=O)c2cc(NC(=O)c3cc(S(=O)(=O)Nc4ccc(Cl)cc4)ccc3Cl)ccc2N2CCOCC2)cc1 | > 10 | > 10 | – |
| Cc1cc(C)cc(N(C(=O)Cc2coc3cc(C)ccc23)c2nc(-c3ccc(F)cc3)cs2)c1 | > 10 | > 10 | – |
| c1ccc(-c2cc3c(N4CCC(c5ncc[nH]5)CC4)ncnc3s2)cc1 | 3.94 | – | IC50 (PBLUC_HILL_SLOPE 15.6, PBLUC_R_SQUARED 0.358, read-out: LUCIFERASE INFECTION ASSAY - IC50): 3.43 µM |
| CC(C)n1ncc2cc(C(=O)Nc3nnc(-c4ccccn4)[nH]3)cnc21 | > 10 | – | IC50 (PBLUC_HILL_SLOPE 1.86, PBLUC_R_SQUARED 0.0303, read-out: LUCIFERASE INFECTION ASSAY - IC50): 6.07 µM |
| N#CC(C(=O)COC(=O)COc1cc(Cl)c(Cl)cc1Cl)=C1Nc2ccccc2N1 | > 10 | > 10 | – |
| COc1ccc2c(c1)CCCC21NC(=O)N(Cc2cc(=O)n3cc(C)ccc3n2)C1=O (stereo not given) | 1.38 | – | IC50 (PBLUC_HILL_SLOPE 1.52, PBLUC_R_SQUARED 0.761, read-out: LUCIFERASE INFECTION ASSAY - IC50): 0.324 µM |
| Cc1ccc(-n2c(C)cc(C(=O)CNCc3ccccc3)c2C)cc1 | > 10 | – | IC50 (PBLUC_HILL_SLOPE 3.04, PBLUC_R_SQUARED 0.101, read-out: LUCIFERASE INFECTION ASSAY - IC50): 9.63 µM |
| CC1CC(=O)C2C(=Nc3ccccc3SC2c2ccc(F)cc2)C1 (stereo not given) | > 9.72 | – | IC50 (FFLUC_HILL_SLOPE 40.6, FFLUC_R_SQUARED 0.352, PBLUC_HILL_SLOPE 4.94, PBLUC_R_SQUARED 0.608, read-out: LUCIFERASE INFECTION ASSAY - IC50): 7.03 µM |
| CC(=O)Nc1ccc(CC#N)cc1 | > 18.9 | > 18.9 | – |
| O=c1c2ccccc2c(-c2ccc(F)cc2F)nn1-c1ccccc1 | > 9.87 | > 9.87 | – |
| Cc1ccc(N2C(=N)C(=S)N(c3ccc(Cl)c(Cl)c3)C2=O)cc1 | > 9.06 | > 9.06 | – |
| CN1CCN(C(=O)c2cccc(-c3cnc4cnc(-c5ccc(Cl)cc5)cn34)c2)CC1 | > 7.64 | > 7.64 | – |

Reference: ChEMBL document CHEMBL4483862, “Open-source discovery of chemical leads for next-generation chemoprotective antimalarials” (2018)
